Assay results as given in patent US8901276B2, “Peptide reagents and methods for detection of colon dysplasia” (The Regents of the University of Michigan, priority 2010, dated 2014).
Where no end group is shown, it is not given here.

How the values were obtained:
[1] = system: adenomatous polyps; assay: Confocal microscopy of polyp biopsy after in vivo peptide administration; set-up: species or system CPC;Apc mice; settings: biopsy after in vivo FITC-peptide administration
Description: Preferential binding of Peptide compared to the Control peptide 1 on the adenomatous polyps was confirmed with confocal microscopy. A polyp biopsy was taken after 5′-FITC-labeled peptide administration in vivo, incubated in 1 μg/mL Hoechst dye for 5 minutes to stain living nuclei, rinsed 3× with 1×PBS and imaged on a Leica Confocal Microscope (Leica Microsystems, Bannockburn, Ill.).

[2] = system: excised polyps; assay: Ex vivo peptide binding to excised polyps; set-up: species or system CPC;Apc mice; settings: 100 μM, 5 min
Description: Polyps from CPC;Apc mice (n=3 mice, 5 polyp pairs) were excised and washed 3× in PBS. The polyps were incubated in 100 μM peptide solution for 5 minutes and subsequently washed 3× with 1×PBS. Polyps were grossly imaged using the small animal endoscope to view binding to the polyp as a whole. Pairs of polyps (one candidate, one control) were imaged at a time to allow for the calculation of a candidate peptide to Control peptide 1 binding ratio for each pair analyzed. An average binding ratio was calculated ± one standard deviation. A similar procedure to determine mean grey scale values for image analysis was followed for the ex vivo polyps as described above for the in vivo polyps.

QPIHPNNM (also: FITC or Cy5.5 label) [Peptide 1, tested FITC- or Cy5.5-labeled]
binding to adenomas, confocal images of biopsied polyps [1]: bound more to adenomas than the Control peptide 1
increase in binding compared to Control peptide 1 [2]: ~2 fold
